The results in this text go back to patent publication US4956504A, “Novel spergualin-related compounds and process for producing the same” (Zaidan Hojin Biseibutsu Kagaku Kenkyu Kai, priority 1986, dated 1990).

In one series the test system is mice. As to the kind of experiment: Acute toxicity: administration amount causing acute death to mice. It counts as in vivo. The procedure:
A compound of the present invention was dissolved in a physiological saline solution in various concentrations. Each of the resulting solutions was intraperitoneally administered to one of CDF1 -SLC female mice (one group: two to three mice) in an amount of 0.1 ml per 10 g of body weight. The highest concentration of present compound in solution was 400 mg/10 ml/kg, and starting from this solution of highest concentration, solutions of lower concentrations were prepared each time at a common ratio of 2. The administration amount of present compound with the lowest concentration solution with which at least one mouse died was taken as an administration amount of acute toxicity.
(§1) In Tables and 5, a control compound is included. This compound is such that in the general formula [I], X is [drawing 59] R is --CH2 OH and both of R1 and R2 are --H.

The next series concerns mouse leukemia L1210. As to the kind of experiment: Life prolongation effect to mouse leukemia L1210. It counts as in vivo, mouse (CDF1-SLC female). The note with it: once a day for nine consecutive days, 125 or more is effective, read-out: T/C × 100 (life prolongation percentage); for response vs control in vivo at 0.39 mg/kg: 0.39 mg/kg/day; for response vs control in vivo at 0.78 mg/kg: 0.78 mg/kg/day; for response vs control in vivo at 1.56 mg/kg: 1.56 mg/kg/day; for response vs control in vivo at 3.13 mg/kg: 3.13 mg/kg/day; for response vs control in vivo at 6.25 mg/kg: 6.25 mg/kg/day; for response vs control in vivo at 12.5 mg/kg: 12.50 mg/kg/day; for response vs control in vivo at 25 mg/kg: 25.00 mg/kg/day; for response vs control in vivo at 50 mg/kg: 50.00 mg/kg/day. Here is the method:
3. Life prolongation effect of present compound to mouse leukemia cells L1210 and its toxicity
1×10^5 /0.2 ml/mouse of mouse leukemia cells L1210 were intraperitoneally transplanted to test groups and a control group of CDF1 -SLC female mice (each group: four mice). A compound of the present invention was dissolved in a physiological saline solution in various concentrations and each of the resulting solutions was administered to one of the test groups once a day for nine consecutive days from the next day of the transplantation, in an amount of 0.1 ml/10 g (body weight)/day. The physiological saline solution was administered to the control group.
All the mice of the test groups and the control group were observed from the next day of the L1210 transplantation to examine their days of survival, and the average days of survival (T) of each test group and the average days of survival (C) of the control group were calculated. The life prolongation percentage of the present compound was expressed as (T/C)×100.
It is believed that a (T/C)×100 of 125 or more is effective.
as §1

In series [1] the test system is antibody formation (anti-SRBC plaque-forming cells). As to the kind of experiment: Inhibitory activity against antibody formation (anti-SRBC plaque-forming cells in spleen). It counts as in vivo, mouse (CDF1-SLC female). The note with it: once a day for three consecutive days, minus shows an increase of antibody formation. Here is the method: (b) Inhibitory activity against antibody formation
Test groups and a control group of CDF1 -SLC female mice (each group: five mice) were intravenously sensitized with 1×10^8 /0.2 ml of sheep red blood cells (SRBC). A compound of the present invention was dissolved in a physiological saline solution in various concentrations. Each of the resulting solutions was administered to one of the test groups once a day for three consecutive days from the next day of the sensitization, in an amount of 0.1 ml/10 g (body weight)/day. The physiological saline solution was administered to the control group.
In the fourth day from the sensitization, all the mice were killed and the number of anti-SRBC plaque-forming cells (PFC) in the spleen cells of each mouse was measured. From this number, the PFC number per 10^6 of spleen cells was calculated. The effect of the present compound was expressed as an inhibition percentage (%) of PFC number of test group as compared with control group. [formula]
as §1

Where [2] appears, read: Administration amount 1.56 mg/kg.
[3] abbreviates: Administration amount 6.25 mg/kg.
Where [4] appears, read: intraperitoneal, single, lowest amount with which at least one mouse died.

Where a name gives a salt, the structure may show the parent alone.

`N=C(N)Nc1ccc(CCCC(=O)N[C@@H](CO)C(=O)NCCCCNCCCNC(=O)[C@@H](N)c2ccccc2)cc1` [Compound No. 1, 10-{N-[4-(4-GP)butanoyl]-L-Ser}-1-L-PhG-1,5,10-TAD trihydrochloride]: the “Administration amount causing acute death to mice” value in the series with mice (mouse, in vivo, ip) is recorded as 100 mg/kg. In the series on mouse leukemia L1210, the response vs control in vivo at 0.39 mg/kg was found to be 146%, the response vs control in vivo at 0.78 mg/kg worked out at 195%, the response vs control in vivo at 1.56 mg/kg was 296% and the response vs control in vivo at 3.13 mg/kg is 269%. For the same molecule, in the series on mouse leukemia L1210, the response vs control in vivo at 6.25 mg/kg came out at 315%, the response vs control in vivo at 12.5 mg/kg is 278%, the response vs control in vivo at 25 mg/kg was found to be 294% and the response vs control in vivo at 50 mg/kg came to 327%. For the same molecule, the “Inhibitory percentage (antibody formation, PFC number vs control group)” value (“Inhibitory percentage” for short) in series [1] (setting [2]) was 87%. In addition, the “Inhibitory percentage” value in series [1] (setting [3]) was found to be 97%.
In the case of `CC(C)C[C@H](N)C(=O)NCCCNCCCCNC(=O)[C@H](CO)NC(=O)CCCc1ccc(NC(=N)N)cc1` [Compound No. 2, 10-{N-[4-(4-GP)butanoyl)-L-Ser}-1-L-], in the series with mouse leukemia L1210, the response vs control in vivo at 0.39 mg/kg turned out to be 136%, the response vs control in vivo at 0.78 mg/kg is 152%, the response vs control in vivo at 1.56 mg/kg came out at 244% and the response vs control in vivo at 3.13 mg/kg was found to be 331%. In addition, in the series on mouse leukemia L1210, the response vs control in vivo at 6.25 mg/kg turned out to be 300%, the response vs control in vivo at 12.5 mg/kg was found to be 272%, the response vs control in vivo at 25 mg/kg was determined as 281% and the response vs control in vivo at 50 mg/kg is 53%. Besides, in series [1] (setting [2]), the “Inhibitory percentage” value stood at 60%. In addition, in series [1] (setting [3]), the “Inhibitory percentage” value is 92%.
Regarding `CC(C)C[C@@H](N)C(=O)NCCCNCCCCNC(=O)[C@H](CO)NC(=O)CCCc1ccc(NC(=N)N)cc1` [Compound No. 3, 10-{N-[4-(4-GP)butanoyl]-L-Ser}-1-D-Leu-1,5,10-TAD trihydrochloride], the “Administration amount causing acute death to mice” value in the series with mice (setting [4]) is reported as 100 mg/kg.
As to `N=C(N)Nc1ccc(CCCC(=O)N[C@@H](CO)C(=O)NCCCCNCCCNC(=O)[C@@H](N)Cc2ccccc2)cc1` [Compound No. 5, 10-{N-[4-(4-GP)butanoyl]-L-Ser}-1-L-Phe-1,5,10-TAD trihydrochloride], in the series on mice (mouse, in vivo, ip), the “Administration amount causing acute death to mice” value was found to be 100 mg/kg. In the series with mouse leukemia L1210, the response vs control in vivo at 0.39 mg/kg was found to be 123%, the response vs control in vivo at 0.78 mg/kg is 133%, the response vs control in vivo at 1.56 mg/kg stood at 146% and the response vs control in vivo at 3.13 mg/kg is 265%. Besides, in the series on mouse leukemia L1210, the response vs control in vivo at 6.25 mg/kg amounted to 290%, the response vs control in vivo at 12.5 mg/kg was found to be 290%, the response vs control in vivo at 25 mg/kg came to 284% and the response vs control in vivo at 50 mg/kg was 253%.
As to `N=C(N)Nc1ccc(CCCC(=O)N[C@@H](CO)C(=O)NCCCCNCCCNC(=O)[C@@H](N)Cc2ccc(O)cc2)cc1` [Compound No. 6, 10-{N-[4-(4-GP)butanoyl]-L-Ser}-1-L-Tyr-1,5,10-TAD trihydrochloride], in the series on mice (mouse, in vivo, ip), the “Administration amount causing acute death to mice” value stood at 100 mg/kg. In the series with mouse leukemia L1210, the response vs control in vivo at 0.39 mg/kg came to 125%, the response vs control in vivo at 0.78 mg/kg was 158%, the response vs control in vivo at 1.56 mg/kg worked out at 201% and the response vs control in vivo at 3.13 mg/kg was 267%. Further, in the series on mouse leukemia L1210, the response vs control in vivo at 6.25 mg/kg came out at 250%, the response vs control in vivo at 12.5 mg/kg amounted to 250%, the response vs control in vivo at 25 mg/kg was determined as 270% and the response vs control in vivo at 50 mg/kg stood at 162%.
As to `N=C(N)Nc1ccc(CCCC(=O)N[C@@H](CO)C(=O)NCCCCNCCCNC(=O)[C@@H](N)CC(=O)O)cc1` [Compound No. 7, 10-{N-[4-(4-GP)butanoyl]-L-Ser}-1-L-Asp-1,5,10-TAD trihydrochloride], in the series on mice (mouse, in vivo, ip), the “Administration amount causing acute death to mice” value is listed as 100 mg/kg. In the series on mouse leukemia L1210, the response vs control in vivo at 0.39 mg/kg is 96%, the response vs control in vivo at 0.78 mg/kg was determined as 86%, the response vs control in vivo at 1.56 mg/kg worked out at 99% and the response vs control in vivo at 3.13 mg/kg came out at 152%. For the same molecule, in the series with mouse leukemia L1210, the response vs control in vivo at 6.25 mg/kg was found to be 216%, the response vs control in vivo at 12.5 mg/kg came out at 265%, the response vs control in vivo at 25 mg/kg stood at 284% and the response vs control in vivo at 50 mg/kg worked out at 284%.
On to `C[C@H](N)C(=O)NCCCNCCCCNC(=O)[C@H](CO)NC(=O)CCCc1ccc(NC(=N)N)cc1` [Compound No. 8, 10-{N-[4-(4-GP)butanoyl]-L-Ser}-1-L-Ala-1,5,10-TAD trihydrochloride], for which the response vs control in vivo at 0.2 mg/kg in the series with mouse leukemia L1210 (0.20 mg/kg/day) turned out to be 109%. Also, in the series with mouse leukemia L1210, the response vs control in vivo at 0.39 mg/kg is 102%, the response vs control in vivo at 0.78 mg/kg was 130%, the response vs control in vivo at 1.56 mg/kg worked out at 164% and the response vs control in vivo at 3.13 mg/kg came out at 312%. Besides, in the series with mouse leukemia L1210, the response vs control in vivo at 6.25 mg/kg was 272%, the response vs control in vivo at 12.5 mg/kg was 290% and the response vs control in vivo at 25 mg/kg came out at 362%.
In the case of `N=C(N)Nc1ccc(CCCC(=O)N[C@@H](CO)C(=O)NCCCCNCCCNC(=O)[C@@H](N)CO)cc1` [Compound No. 9, 10-{N-[4-(4-GP)butanoyl]-L-Ser}-1-L-Ser-1,5,10-TAD trihydrochloride], the “Administration amount causing acute death to mice” value in the series on mice (mouse, in vivo, ip) is greater than 100 mg/kg. For the same molecule, in the series with mouse leukemia L1210, the response vs control in vivo at 0.78 mg/kg amounted to 118%, the response vs control in vivo at 1.56 mg/kg is 125%, the response vs control in vivo at 3.13 mg/kg was found to be 155% and the response vs control in vivo at 6.25 mg/kg worked out at 191%. In addition, in the series on mouse leukemia L1210, the response vs control in vivo at 12.5 mg/kg was 276%, the response vs control in vivo at 25 mg/kg came out at 241% and the response vs control in vivo at 50 mg/kg worked out at 250%. The response vs control in vivo at 100 mg/kg in the series with mouse leukemia L1210 (100.00 mg/kg/day) worked out at 103%.
Consider `N=C(N)Nc1ccc(CCCC(=O)N[C@@H](CO)C(=O)NCCCCNCCCNC(=O)[C@@H]2CCCN2)cc1` [Compound No. 10, 10-{N-[4-(4-GP)butanoyl-L-Ser}-1-L-Pro-1,5,10-TAD trihydrochloride], for which the “Administration amount causing acute death to mice” value in the series with mice (setting [4]) was 100 mg/kg.
`N=C(N)Nc1ccc(CCCC(=O)N[C@@H](CO)C(=O)NCCCCNCCCNC(=O)[C@@H](O)[C@H](N)Cc2ccccc2)cc1` [Compound No. 12, 10-{N-[4-(4-GP)butanoyl]-L-Ser}-1-[(2S, 3R)-AHPA]-1,5,10-TAD trihydrochloride]: the “Administration amount causing acute death to mice” value in the series on mice (setting [4]) was 100 mg/kg.
In the case of `N=C(N)Nc1ccc(CCCC(=O)N[C@@H](CO)C(=O)NCCCCN(CCCNC(=O)[C@@H](N)c2ccccc2)C(=O)[C@@H](N)c2ccccc2)cc1` [Compound No. 14, 10-{N-[4-(4-GP)butanoyl]-L-Ser}-1,5-di-L-PhG-1,5,10-TAD trihydrochloride], the “Administration amount causing acute death to mice” value in the series on mice (mouse, in vivo, ip) was 200 mg/kg. In addition, the “Inhibitory percentage” value was -50% in series [1] (setting [2]) and -75% in series [1] (setting [3]).
